Experimental data published in patent US11931459B2, “Treatment of pain in pediatric patients by administration of sustained-release liposomal anesthetic compositions” (Pacira Pharmaceuticals, Inc., priority 2021, dated 2024).
Counter-ions that a name gives are not always drawn.

Columns and labels:
[1] = Bupivacaine PK after local infiltration, noncompartmental analysis (PLAY phase 3 trial, NCT03682302); parameters: species or system human; conditions: in vivo; for AUC(0-inf): AUC0-∞
Method: • Methods: A multicenter, open-label, phase 3, randomized trial (PLAY; NCT03682302) was conducted, with primary and secondary objectives evaluating the pharmacokinetics and safety, respectively, of multivesicular liposomal bupivacaine (EXPAREL®) in pediatric patients (age group 1: 12 to <17 years; age group 2: 6 to <12 years). The hypothesis was that the pharmacokinetics and safety profiles would support the safety of EXPAREL® (also referred to herein as “multivesicular liposomal bupivacaine” or “liposomal bupivacaine”) in pediatric patients. Age group 1 received 4 mg/kg liposomal bupivacaine or 2 mg/kg bupivacaine hydrochloride (HCl) at the end of spine surgery; all patients in age group 2 received liposomal bupivacaine (4 mg/kg) at the end of spine or cardiac surgery. […] In age group 2, 100% and 31% of patients undergoing spine (n=5) and cardiac (n=9) surgery experienced TEAEs, respectively. TEAEs were generally mild or moderate, with no discontinuations due to TEAEs or deaths. […] TEAEs were mild to moderate, supporting the safety of liposomal bupivacaine in pediatric patients undergoing spine or cardiac surgery. Study Design
This study was performed in 2 parts. Part 1 evaluated PK and safety of liposomal bupivacaine. Part 2 followed part 1 and further evaluated the safety of liposomal bupivacaine. For both parts of the study, pediatric patients aged 12 to <17 years (age group 1) were analyzed separately from patients aged 6 to <12 years (age group 2), per FDA guidance for safety studies in pediatric patients.^25
In age group 1, eligible pediatric patients aged 12 to <17 years undergoing spine surgery were randomized 1:1 to receive a single dose of either liposomal bupivacaine (4 mg/kg up to 266 mg) diluted with normal saline, or bupivacaine HCl (2 mg/kg up to 175 mg) via local infiltration at the end of surgery. Randomization was performed with a centralized randomization system using a unique subject identifier and unique random code identifier. In age group 2, all eligible pediatric patients aged 6 to <12 years of age undergoing either spine or cardiac surgery received liposomal bupivacaine (4 mg/kg up to 266 mg) via local infiltration at the end of surgery. Dosing for both age groups was weight based. Guidelines and training were shared with the participating surgeons to ensure reliability in infiltration techniques.
Across age groups and surgical procedures, surgeons administered liposomal bupivacaine or bupivacaine HCl via local infiltration prior to wound closure, with liposomal bupivacaine and bupivacaine HCl administered in small increments into the deep and superficial layers along the entire length of the incision site to ensure uniform drug distribution. Use of intraoperative opioids, acetaminophen, or other nonsteroidal anti-inflammatory drugs as well as postsurgical pain medication in cases of insufficient analgesia during and after surgery was permitted in accordance with the standard of care at each site. Use of local anesthetics within 96 hours after administration of liposomal bupivacaine was prohibited.
The primary objective was to analyze PK of liposomal bupivacaine, including area under the plasma concentration-time curve (AUC), maximum plasma concentration (Cmax), time to Cmax (Tmax), apparent elimination half-life (t1/2), apparent clearance (CL/F), and apparent volume of distribution (Vd/F). To assess plasma concentration of bupivacaine, 8 blood samples were collected up to 42-60 hours after spine surgery and up to 64-72 hours after cardiac surgery in each patient. For both procedures, the first 4 samples were collected ˜15, ˜30, ˜45, and 60-75 minutes after liposomal bupivacaine administration. The last 4 samples were collected in time windows rather than precise time points. For spine surgery, sample windows were 2-3,10-18, 24-36, and 42-60 hours after receiving liposomal bupivacaine or bupivacaine HCl. […]

[2] = Bupivacaine PK, nonlinear mixed-effect modeling (population PK method); type: in vivo, human
Method: The sample size was determined on the basis of the number of patients needed to characterize the PK profile of liposomal bupivacaine in pediatric patients per FDA requirements. Authorized staff or a designee obtained the randomization assignment once eligible patients were at the clinic site for surgery. Descriptive statistics (number, mean, standard deviation [SD], median, minimum, maximum) were calculated for continuous data; tabulations (number and percentage) were calculated for categorial data. PK analysis included pediatric patients who underwent surgery, received treatment, and provided at least 1 blood sample for quantifiable plasma concentration measurement. PK measures were assessed by noncompartmental analysis. A separate PK analysis was conducted using nonlinear mixed-effect modeling (population PK method) with the spine surgery cohorts combined. The safety analysis included pediatric patients who underwent surgery and received treatment. The incidence of patients reporting TEAEs was tabulated by the number and percentage of patients reporting the TEAE. All analyses and tabulations were performed using SAS, version 9.4; PK descriptive statistics were performed using Sigmastat and Microsoft Excel.
Across age groups, trends in PK parameters between liposomal bupivacaine and bupivacaine HCl using the population PK model were consistent with those observed with noncompartmental analysis (Table 4). The PK of bupivacaine in both age groups and surgery cohorts were adequately described by a linear 2-compartment PK model with fast and slow absorption routes for liposomal bupivacaine. For each treatment (liposomal bupivacaine or bupivacaine HCl), the Cmax in 12-year-old patients was predicted to be similar to that in 17-year-old patients in pediatric patients undergoing spine surgery.

[3] = Safety: treatment-emergent adverse events up to 30 days after surgery (PLAY trial); type: in vivo; conditions: age group 1 (12 to <17 years), spine surgery; liposomal bupivacaine 4 mg/kg or bupivacaine HCl 2 mg/kg
Method: • Methods: A multicenter, open-label, phase 3, randomized trial (PLAY; NCT03682302) was conducted, with primary and secondary objectives evaluating the pharmacokinetics and safety, respectively, of multivesicular liposomal bupivacaine (EXPAREL®) in pediatric patients (age group 1: 12 to <17 years; age group 2: 6 to <12 years). The hypothesis was that the pharmacokinetics and safety profiles would support the safety of EXPAREL® (also referred to herein as “multivesicular liposomal bupivacaine” or “liposomal bupivacaine”) in pediatric patients. Age group 1 received 4 mg/kg liposomal bupivacaine or 2 mg/kg bupivacaine hydrochloride (HCl) at the end of spine surgery; all patients in age group 2 received liposomal bupivacaine (4 mg/kg) at the end of spine or cardiac surgery. […]
The sample size was determined on the basis of the number of patients needed to characterize the PK profile of liposomal bupivacaine in pediatric patients per FDA requirements. […] Descriptive statistics (number, mean, standard deviation [SD], median, minimum, maximum) were calculated for continuous data; tabulations (number and percentage) were calculated for categorial data. PK analysis included pediatric patients who underwent surgery, received treatment, and provided at least 1 blood sample for quantifiable plasma concentration measurement. PK measures were assessed by noncompartmental analysis. […]

CCCCN1CCCCC1C(=O)Nc1c(C)cccc1C (stereo not drawn) [bupivacaine HCl, bupivacaine hydrochloride]
Tmax ([1]; human): ~1 h | Tmax ([1]; human, 2 mg/kg): 0.9 h | AUC(0-inf) ([1]; human, 2 mg/kg, Geometric mean): 5060 ng·h/mL | AUC(0-inf) ([1]; human, 2 mg/kg, Mean): 5710 ng·h/mL | Vd/F ([1]; human, 2 mg/kg, Geometric mean): 201 L | Vd/F ([1]; human, 2 mg/kg, Mean): 227 L | half-life ([1]; human, 2 mg/kg, t1/2, Geometric mean): 7.4 h | half-life ([1]; human, 2 mg/kg, t1/2, Mean): 8.4 h | Cmax ([1]; human, age group 1 (12 to <17 years), spine surgery, local infiltration, liposomal bupivacaine 4 mg/kg (n = 15) or bupivacaine HCl 2 mg/kg (n = 15), read-out: Cmax, Geometric mean): 488 ng/mL | CL/F, Mean [1]: 20.5 L/h | CL/F, geometric mean [1]: 18.9 L/h | AUC(0-inf) ([2]; human, plasma, population PK method, spine surgery: liposomal bupivacaine 4 mg/kg (6 to <17 y, n = 18) or bupivacaine HCl 2 mg/kg (12 to <17 y, n = 15), read-out: AUC0-∞, geometric mean): 6400 ng·h/mL | Cmax ([2]; human, plasma, population PK method, spine surgery: liposomal bupivacaine 4 mg/kg (6 to <17 y, n = 18) or bupivacaine HCl 2 mg/kg (12 to <17 y, n = 15), read-out: Early Cmax, geometric mean): 444 ng/mL | Vd/F ([2]; human, plasma, population PK method, spine surgery: liposomal bupivacaine 4 mg/kg (6 to <17 y, n = 18) or bupivacaine HCl 2 mg/kg (12 to <17 y, n = 15), read-out: Vss/F, geometric mean): 153 L | half-life ([2]; human, plasma, population PK method, spine surgery: liposomal bupivacaine 4 mg/kg (6 to <17 y, n = 18) or bupivacaine HCl 2 mg/kg (12 to <17 y, n = 15), read-out: t1/2, geometric mean (converted)): 6.5 h | CL/F, geometric mean ([2]; population PK method, spine surgery: liposomal bupivacaine 4 mg/kg (6 to <17 y, n = 18) or bupivacaine HCl 2 mg/kg (12 to <17 y, n = 15)): 16.8 L/h | Median predicted early Tmax ([2]; population PK model, spine surgery): 0.667 h | discontinuations due to TEAEs or on-study deaths [3]: no discontinuations due to TEAEs or on-study deaths
